Reference: the NIST ThermoML archive (doi:10.1021/je049612f)
± gives the expanded uncertainty stated by the source.

Settings: 350 K, Gas, Vibrating wire viscometry

`FS(F)(F)(F)(F)F` [sulfur hexafluoride] showed a viscosity (269.03 kPa) of 0.0176 ± 0.00091 mPa·s, a viscosity (295.24 kPa) of 0.0176 ± 0.00091 mPa·s and a viscosity (332.44 kPa) of 0.01761 ± 0.00091 mPa·s. The viscosity (363.13 kPa) was 0.01762 ± 0.00091 mPa·s, the viscosity (390.5 kPa) was 0.01763 ± 0.00091 mPa·s and the viscosity (418.5 kPa) was 0.01765 ± 0.00091 mPa·s. It also gave a viscosity (450.38 kPa) of 0.01765 ± 0.00091 mPa·s, a viscosity (485.3 kPa) of 0.01766 ± 0.00091 mPa·s and a viscosity (522.75 kPa) of 0.01767 ± 0.00091 mPa·s. For the same compound, the viscosity (552.81 kPa) was 0.01768 ± 0.00091 mPa·s, the viscosity (579.7 kPa) was 0.01769 ± 0.00091 mPa·s and the viscosity (619.51 kPa) was 0.01771 ± 0.00091 mPa·s. It also gave a viscosity (654.26 kPa) of 0.01772 ± 0.00091 mPa·s, a viscosity (701.64 kPa) of 0.01775 ± 0.00091 mPa·s and a viscosity (739.48 kPa) of 0.01775 ± 0.00091 mPa·s. It also gave a viscosity (779.89 kPa) of 0.01777 ± 0.00091 mPa·s, a viscosity (809.98 kPa) of 0.01779 ± 0.00091 mPa·s and a viscosity (855.04 kPa) of 0.0178 ± 0.00091 mPa·s. The viscosity (900.26 kPa) was 0.01782 ± 0.00091 mPa·s, the viscosity (954.25 kPa) was 0.01784 ± 0.00091 mPa·s and the viscosity (997.88 kPa) was 0.01787 ± 0.00091 mPa·s. It also gave a viscosity (1051.5 kPa) of 0.0179 ± 0.00091 mPa·s, a viscosity (1146.2 kPa) of 0.01795 ± 0.00091 mPa·s and a viscosity (1196.5 kPa) of 0.01798 ± 0.00091 mPa·s. The viscosity (1265.4 kPa) was 0.01803 ± 0.00091 mPa·s, the viscosity (1341.2 kPa) was 0.01807 ± 0.00092 mPa·s and the viscosity (1392.7 kPa) was 0.01811 ± 0.00092 mPa·s. For the same compound, the viscosity (1473.1 kPa) was 0.01816 ± 0.00092 mPa·s, the viscosity (1546.1 kPa) was 0.01821 ± 0.00092 mPa·s and the viscosity (1621.8 kPa) was 0.01827 ± 0.00092 mPa·s. For the same compound, the viscosity (1656.3 kPa) was 0.0183 ± 0.00092 mPa·s, the viscosity (1713.2 kPa) was 0.01835 ± 0.00092 mPa·s and the viscosity (1840 kPa) was 0.01844 ± 0.00092 mPa·s. The viscosity (1888.3 kPa) was 0.01849 ± 0.00092 mPa·s, the viscosity (1964.6 kPa) was 0.01856 ± 0.00092 mPa·s and the viscosity (2005.9 kPa) was 0.01861 ± 0.00092 mPa·s. For the same compound, the viscosity (2043.2 kPa) was 0.01864 ± 0.00092 mPa·s, the viscosity (2108.6 kPa) was 0.01871 ± 0.00092 mPa·s and the viscosity (2309.3 kPa) was 0.01893 ± 0.00092 mPa·s. The viscosity (2394 kPa) was 0.01903 ± 0.00092 mPa·s, the viscosity (2449.2 kPa) was 0.01908 ± 0.00092 mPa·s and the viscosity (2505.1 kPa) was 0.01916 ± 0.00092 mPa·s. It also gave a viscosity (2608.1 kPa) of 0.01929 ± 0.00092 mPa·s, a viscosity (2657.7 kPa) of 0.01936 ± 0.00093 mPa·s and a viscosity (2798.4 kPa) of 0.01957 ± 0.00093 mPa·s. It also gave a viscosity (2900.4 kPa) of 0.01971 ± 0.00093 mPa·s, a viscosity (2978.2 kPa) of 0.01986 ± 0.00093 mPa·s and a viscosity (3047.1 kPa) of 0.01996 ± 0.00093 mPa·s. It also gave a viscosity (3125.3 kPa) of 0.0201 ± 0.00093 mPa·s, a viscosity (3224.5 kPa) of 0.02028 ± 0.00093 mPa·s and a viscosity (3319.6 kPa) of 0.02047 ± 0.00093 mPa·s. The viscosity (3405.3 kPa) was 0.02064 ± 0.00094 mPa·s, the viscosity (3504.4 kPa) was 0.02085 ± 0.00094 mPa·s and the viscosity (3655.4 kPa) was 0.02123 ± 0.00094 mPa·s. The viscosity (3748 kPa) was 0.02146 ± 0.00094 mPa·s, the viscosity (3869.5 kPa) was 0.02179 ± 0.00094 mPa·s and the viscosity (3987.5 kPa) was 0.02211 ± 0.00095 mPa·s. It also gave a viscosity (4143 kPa) of 0.02261 ± 0.00095 mPa·s, a viscosity (4307.3 kPa) of 0.02322 ± 0.00096 mPa·s and a viscosity (4473.2 kPa) of 0.02386 ± 0.00096 mPa·s. For the same compound, the viscosity (4598.1 kPa) was 0.02443 ± 0.00096 mPa·s, the viscosity (4732.9 kPa) was 0.02508 ± 0.00097 mPa·s and the viscosity (4848.3 kPa) was 0.02571 ± 0.00097 mPa·s. For the same compound, the viscosity (4964.3 kPa) was 0.02637 ± 0.00098 mPa·s, the viscosity (5096.1 kPa) was 0.02724 ± 0.00099 mPa·s and the viscosity (5208.7 kPa) was 0.02806 ± 0.00099 mPa·s. The viscosity (5327.4 kPa) was 0.02902 ± 0.001 mPa·s, the viscosity (5431.3 kPa) was 0.02995 ± 0.001 mPa·s and the viscosity (5524.2 kPa) was 0.03078 ± 0.001 mPa·s. The viscosity (5638.8 kPa) was 0.03189 ± 0.001 mPa·s, the viscosity (5741 kPa) was 0.03299 ± 0.001 mPa·s and the viscosity (5850 kPa) was 0.03434 ± 0.001 mPa·s. For the same compound, the viscosity (5956.2 kPa) was 0.03561 ± 0.0011 mPa·s, the viscosity (6067.6 kPa) was 0.03706 ± 0.0011 mPa·s and the viscosity (6177.6 kPa) was 0.03857 ± 0.0011 mPa·s. For the same compound, the viscosity (6280.8 kPa) was 0.03995 ± 0.0011 mPa·s, the viscosity (6385.1 kPa) was 0.04139 ± 0.0011 mPa·s and the viscosity (6510.8 kPa) was 0.04319 ± 0.0012 mPa·s. The viscosity (6635.4 kPa) was 0.04497 ± 0.0011 mPa·s, the viscosity (6769.6 kPa) was 0.04684 ± 0.0011 mPa·s and the viscosity (6918.8 kPa) was 0.04891 ± 0.0012 mPa·s. The viscosity (7076.5 kPa) was 0.05108 ± 0.0012 mPa·s, the viscosity (7230 kPa) was 0.05306 ± 0.0012 mPa·s and the viscosity (7408.1 kPa) was 0.05532 ± 0.0012 mPa·s.
